In patent US8614103B2, “Compositions and methods for treating sphingosine-1-phosphate (S1P) related ocular diseases and conditions” (Lpath, Inc., priority 2006, dated 2013):

Key:
[1] = tested on: human conjunctiva fibroblasts; assay: α-SMA expression in conjunctiva fibroblasts; type: cell-based; settings: only at this concentration
Text: (§1) In many of these disorders, circulating growth factors and chemokines promote the transformation of normal ocular cells into fibrocontractile, scar tissue-producing cells that have been termed “myofibroblasts”. Normally, myofibroblasts are responsible for tissue repair as part of the wound healing response following injury. However altered number and function of myofibroblasts are implicated in diseases characterized by pathological scar tissue formation in the liver, skin, lung, kidney, heart and eyes. In the eye, transformation of retinal pigmented epithelial (RPE) cells to a myofibroblast phenotype is linked to formation of fibro-contractile membranes which cause retinal detachment and subsequent vision impairment. In addition, myofibroblast transformation of ocular fibroblasts can result in abnormal scar tissue production after eye injury leading to subsequent vision loss. Although many of the circulating protein factors in the eye that promote myofibroblast formation have been identified, nothing is known regarding the role of lysolipids such as S1P in this process. Therefore, we examined the effects of S1P on myofibroblast transformation of several human ocular cell lines.
(§2) In these experiments, the ability of S1P to promote α-SMA expression differed in a concentration dependent manner between the retinal pigmented epithelial cells and conjunctiva fibroblasts. […]

[2] = tested on: human conjunctiva fibroblasts; assay: PAI-1 expression in conjunctiva fibroblasts; type: cell-based
Text: Collagen is one of the primary structural proteins that supports all tissues in the body and is one of the main components of scar tissue. In the non-pathological setting, total collagen content within tissue is maintained via a balance between collagen production by fibroblasts and degradation by certain enzymes. A number of disorders that involve increased levels of scar tissue result, in part, from physiological and molecular processes that inhibit degradation of collagen that is need for scar formation. It was hypothesized that the ability of S1P to promote scar tissue formation may result from its ability to inhibit collagen degradation, thereby leading to net increases in scar tissue within organs. Therefore, the effects of S1P on expression of plasminogen activator inhibitor (PAI-1) in human conjunctiva fibroblasts were examined.

[3] = tested on: human retinal pigmented epithelial cells; assay: α-SMA expression in retinal pigmented epithelial cells; type: cell-based; settings: back to basal levels at 10 μM
Text: as §1, §2

[4] = tested on: COLO 205 tumor; assay: SC COLO205 colorectal tumor xenograft in nude NCr mice; type: in vivo, mouse; settings: LT1009 50 mg/kg ip q3d; Avastin 40 mg/kg iv q7d; Paclitaxel 15 mg/kg iv q1d×5
Method: Nude mice were implanted sc near the right flank with one fragment per mouse of COLO 205 tumor from an in vivo passage. All treatments were initiated the day when 60 mice in each experiment established tumors ranging in size from approximately 100 to 200 mm3. […] Avastin was administered iv at a dosage of 40 mg/kg/dose on a q7d schedule, injected in a volume of 0.1 mL/20 g body weight. Paclitaxel (positive control), was administered iv at a dosage of 15 mg/kg/dose on a q1d×5 schedule, injected in a volume of 0.1 mL/10 g body weight.
(§3) Animals were observed daily for mortality. Tumor dimensions and body weights were collected twice weekly starting with the first day of treatment and including the day of study termination. When the median tumor in the vehicle-treated control group in each study reached approximately 4,000 mg, the study was terminated. Tumors from each animal were harvested, wet weights were recorded, tumors were processed for determination of microvascular densities (MVD) by CD-31 staining. Tumor weights (mg) were calculated using the equation for an ellipsoid sphere (l×w^2)/2=mm^3, where l and w refer to the larger and smaller dimensions collected at each measurement and assuming unit density (1 mm^3=1 mg).

[5] = tested on: DU145 tumor; assay: SC DU145 prostate tumor xenograft in nude NCr mice; type: in vivo, mouse; settings: LT1009 50 mg/kg ip q2d; Avastin 20 mg/kg q4d; Paclitaxel 7.5 mg/kg q1d×5
Method: Nude mice were implanted sc near the right flank with one fragment per mouse of DU145 tumor from an in vivo passage. All treatments were initiated the day when 60 mice in each experiment established tumors ranging in size from approximately 100 to 200 mm^3. […] Paclitaxel and Avastin were administered iv and ip at a dosage of 7.5 mg/kg/dose and 20 mg/kg/dose, q1d×5 and q4d, respectively, injected in a volume of 0.1 mL/10 g body weight.
During the course of the study tumor growth was monitored by measuring the sc tumors on three axes and calculating the volume. At the end of the study final tumor weights and volumes were determined and then the mice were sacrificed, the tumors harvested. Microvascular densities (MVD) of the tumors were then determined by CD-31 staining.

[6] = tested on: HT29 tumor; assay: SC HT29 colorectal tumor xenograft in nude NCr mice; type: in vivo, mouse; settings: LT1009 50 mg/kg ip q2d; Avastin 20 mg/kg q4d; 5-FU 75 mg/kg q4d
Method: Nude mice were implanted sc near the right flank with one fragment per mouse of HT29 tumor from an in vivo passage. All treatments were initiated the day when 60 mice in each experiment established tumors ranging in size from approximately 100 to 200 mm^3. There were ten mice per treatment group. […] 75 mg/kg 5-FU and 20 mg/kg Avastin were administered ip and iv at a dosage of 75 mg/kg/dose and 20 mg/kg/dose, respectively, q4d, injected in a volume of 0.1 mL/10 g body weight.
as §3, with “recorded, and” for “recorded,”, “MVD” for “microvascular densities (MVD)”

Compound: CCCCCCCCCCCCC/C=C/[C@@H](O)[C@@H](N)COP(=O)(O)O [S1P, sphingosine-1-phosphate]
- concentration at which a significant increase in α-SMA expression was observed [1]: 10 µM
- PAI-1 expression [2]: stimulates the PAI-1 expression in a dose-dependent manner
- concentration at which a significant increase in α-SMA expression was observed [3]: 0.001 µM

Compound: Avastin: anti-angiogenic drug, bevacizumab (Avastin®, Genentech)
- Final Tumor Weights [4]: 1967.90 mg
- Final Tumor Weights [5]: 578 mg
- % Reduction compared to Vehicle-Treated Mice [6]: 30%
- Final Tumor Weights [6]: 1927.44 mg
